{"source": "patent US6285807A", "about": "“Fiber optic sensor for long-term analyte measurements in fluids” (Trustees of Tufts College, priority 1998, dated 2001)", "key": {"[1]": {"test": "Fluorescence emission pH titration of carboxy-SNAFL-1 (curve fits for Io, pKin and B)", "format": "physicochemical", "settings": "for I(543/623) (max) / I(543/623) (min) / pKin: at 21° C.", "source_text": "Where the fluorescence intensity I=dh and I0 =dhT, the fluorescence intensity when the indicator is fully undissociated, Equation 4 becomes: [formula]\nIn this equation the additional term B is the background fluorescence of the system and is an experimentally-derived value. I can also be the ratio of the fluorescence intensities of the protonated and isosbestic forms, where. I=I545 /Iisos\nThe titration curves are shown for carboxy-SNAFL-1in distilled water and in a 0.67 M solution of NaCl. The solid lines are the theoretical curve fits using Equation 6. […] Experiments were carried out in 0.67 M NaCl because it is necessary to balance the osmotic pressure of the indicator solution in the sensor to that of the test solution. The osmotic pressure of the seawater is equivalent to 0.67 M NaCI.\nThe solid lines in FIG. 2 are theoretical fits of Equation 5. The results for Io, pKin, and B are summarized in Table 2 together with typical values reported elsewhere [Walt, D. R, Gabor, G., Goyet, C. Anal. Chim. Actca 1993, 274, 47; DeGrandpre, M. D., Anal. Chem. 1993, 65 (4), 331; Whitaker, J. E., Haugland, R. P., Prendergast, R P. Anal. Biochem. 1991, 194, 330]."}, "[2]": {"test": "Absorbance/emission spectra of carboxy-SNAFL-1 (excitation at 488 nm)", "format": "physicochemical", "settings": "for Emission (Ex. = 488 nm) (acid): acid form; for Emission (Ex. = 488 nm) (acid) / Emission (Ex. = 488 nm) (base) / Emission (Ex. = 488 nm) (isos): at 21° C.; for Emission (Ex. = 488 nm) (base): base form; for Emission (Ex. = 488 nm) (isos): isosbestic", "source_text": "These peaks are centered at 540 nm and 620 nm and result from the protonated and deprotonated forms of the dyes respectively. This dual wavelength feature of the dye makes it particularly suitable for use in a ratiometric mode which accounts for system instabilities, such as photobleaching and lamp intensity fluctuations. This dye also has an isosbestic point at 625 run (Ex.=488 nm) which can be used for ratiometric measurements to assess the extent of dye photobleaching over time.\nThe maxima centered at 540 nm and 620 nm arise from the protonated and deprotonated forms of the dye respectively. [drawing 3]\nThe measurement system 100 comprises a Spectra Physics Model 162A-04 argon-ion laser 105 which provides excitation light radiation, typically at 488 nm. The excitation light is passed through a neutral density filter 110 and an angled dichroic mirror 115 to the proximal end 120 of an optical fiber 125 which conveys the excitation light to the distal end 130 of the fiber 125 and illuminates an optical interrogation zone 135 comprising a fluid sample volume with an indicator dye and analyte. In the presence of the analyte, the excitation light causes the indicator dye to emit emitted light energy in the optical interrogation zone 135, which emitted light is conveyed by the fiber 125 to the proximal end 120 and is deflected through 90° by the front surface 116 of the angled dichroic mirror 115. The emitted light is then focussed with lenses 145, filtered through a long wavelength, band-pass filter 150, and passed through a slit 155 into a monochromater 160. The resulting wavelength-dispersed signal is measured with a Pacific Instruments Model 126. photo-counting detection system. The intensity of the excitation light is measured in photon counts per second as either a function of time or of wavelength examined."}, "[3]": {"test": "Sensor calibration for CO2, constants from theoretical fit (indicator in sensor)", "format": "physicochemical", "settings": "sensor (at 12° C.) (calculated)", "protocol": "The calibration and operation of the sensor operation of the sensor is based on the Severinghaus electrode principle. When carbon dioxide crosses the membrane, the pH of the indicator solution is given by the Henderson-Hasselbach equation: [formula]\nwhere aT =KH KM pCO2 KH /mol dm^3 atm^-1 is Henry's constant and KM is the membrane constant. Substituting Equation 7 into Equation 5 and rearranging gives: [formula]\nThe dissolved CO2 concentration was determined using Henry's constant [Cox, J. D., Head A. J. J Chem. Soc. Faraday Trans., 1962, 58, 1839]. […] Also, for this calculation the membrane volume was not corrected for the porosity, or water content, of the membrane. These parameters would have opposite effects. In the calibration, aT was assumed to equal the dissolved CO2 in the bulk solution, such that KM =1. The sensitivity of the sensor is approximately ±1 ppm.\nThe theoretical equation relating the fluorescence intensity. ratio to pCO2 was compared to test date and is shown by the solid curve in FIG. 6. The pHo value was calculated from Equation 5 using pKin while Io was derived from the above analysis. There was good agreement between experimental and theoretically-derived data."}, "[4]": {"settings": "13 and 14; at 21° C.; cited from earlier work"}, "[5]": {"settings": "13 and 14, at 21° C., cited from earlier work"}, "[6]": {"settings": "13 and 14; cited from earlier work"}, "[7]": {"settings": "distilled water (25° C.), 488 nm excitation"}}, "note": "Where “and” joins values, the source holds several entries; their conditions need not be identical. Equal values may be shown once. Read-outs that look alike come from different tables or passages of the source."}
{"substance": "5' (and 6')-carboxyseminaphthofluorescein [carboxy-SNAFL-1]", "values": [{"measurement": "effect of increasing ionic strength on maximum fluorescence intensity", "setting": "[1]; distilled water vs 0.67 M NaCl", "value": "decreases with increasing ionic strength"}, {"measurement": "effect of increasing ionic strength on pKin", "setting": "[1]; distilled water vs 0.67 M NaCl", "value": "decreases pKin"}, {"measurement": "I(543/623) (max)", "setting": "[1]; in 0.67M NaCl", "value": 5.27}, {"measurement": "I(543/623) (min)", "setting": "[1]; in 0.67M NaCl", "value": 0.129}, {"measurement": "pKin", "setting": "[1]; in 0.67M NaCl", "value": 7.67}, {"measurement": "I(543/623) (max)", "setting": "[1]; in H2O", "value": 5.41}, {"measurement": "I(543/623) (min)", "setting": "[1]; in H2O", "value": 0.145}, {"measurement": "pKin", "setting": "[1]; in H2O", "value": 8.01}, {"measurement": "isosbestic point", "setting": "[2]; Ex.=488 nm", "value": 625, "unit": "nm"}, {"measurement": "emission maximum, deprotonated form", "setting": "[2]; [7]", "value": 620, "unit": "nm"}, {"measurement": "emission maximum, protonated form", "setting": "[2]; [7]", "value": 540, "unit": "nm"}, {"measurement": "emission peak, deprotonated form", "setting": "[2]; excited at 488 nm", "value": 620, "unit": "nm"}, {"measurement": "emission peak, protonated form", "setting": "[2]; excited at 488 nm", "value": 540, "unit": "nm"}, {"measurement": "Emission (Ex. = 488 nm) (acid)", "setting": "[2]; in 0.67M NaCl", "value": 542, "unit": "nm"}, {"measurement": "Emission (Ex. = 488 nm) (base)", "setting": "[2]; in 0.67M NaCl", "value": 620, "unit": "nm"}, {"measurement": "Emission (Ex. = 488 nm) (isos)", "setting": "[2]; in 0.67M NaCl", "value": 624, "unit": "nm"}, {"measurement": "Emission (Ex. = 488 nm) (acid)", "setting": "[2]; in H2O", "value": 545, "unit": "nm"}, {"measurement": "Emission (Ex. = 488 nm) (base)", "setting": "[2]; in H2O", "value": 618, "unit": "nm"}, {"measurement": "Emission (Ex. = 488 nm) (isos)", "setting": "[2]; in H2O", "value": 632, "unit": "nm"}, {"measurement": "I(543/623) (max)", "setting": "[3]", "value": 5.54}, {"measurement": "pKin", "setting": "[3]", "value": 7.98}, {"measurement": "Emission (Ex. = 488 nm) (acid)", "setting": "[3]; acid form", "value": 545, "unit": "nm"}, {"measurement": "Emission (Ex. = 488 nm) (base)", "setting": "[3]; base form", "value": 610, "unit": "nm"}, {"measurement": "I(543/623) (max)", "setting": "[4]", "value": 6.13}, {"measurement": "I(543/623) (min)", "setting": "[4]", "value": 0.09}, {"measurement": "pKin", "setting": "[4]", "value": 7.75}, {"measurement": "Absorbance (acid)", "setting": "[5]; acid form", "value": "481 nm and 510 nm"}, {"measurement": "Emission (Ex. = 488 nm) (acid)", "setting": "[5]; acid form", "value": 542, "unit": "nm"}, {"measurement": "Absorbance (base)", "setting": "[5]; base form", "value": 539, "unit": "nm"}, {"measurement": "Emission (Ex. = 488 nm) (base)", "setting": "[5]; base form", "value": 623, "unit": "nm"}, {"measurement": "Emission (Ex. = 488 nm) (isos)", "setting": "[5]; isosbestic", "value": 615, "unit": "nm"}, {"measurement": "ΔH°", "setting": "[6]", "value": 3.78, "unit": "kcal/mol"}, {"measurement": "ΔS°", "setting": "[6]", "value": -22.6, "unit": "cal mol^-1 K^-1"}, {"measurement": "ΔpH/ΔT", "setting": "[6]", "value": 0.0192, "unit": "° C.^-1"}]}
